Results as given in patent publication US20040204466A1, “Treatment of bronchial asthma using 5-HT3 receptor antagonists” (Orchid Chemicals and Pharmaceuticals Ltd., priority 2003, published 2004).

Assays:
Format in all cases: in vivo, female Balb/c mice
[1] = tested on: ovalbumin sensitized and challenged mice; assay: Serum IgE levels; conditions: gavage 120 μg/kg twice a day for 10 days; values increased, albeit insignificantly
[2] = tested on: ovalbumin sensitized and challenged mice; assay: Airway hyperresponsiveness to methacholine (Penh, barometric plethysmography); conditions: 24 hours after antigen challenge, increasing doses of methacholine, FIGS. 5 and 6
Description: Four to five-week old female Balb/c mice (Harlan Laboratories, Indianapolis, Ind.) were housed according to the NIH guidelines and were allowed constant access to food and water. Intraperitoneal injections of 6 μg of grade V chicken egg ovalbumin (Ova; Sigma-Aldrich, St. Louis, Mo.) adsorbed to 2.25 mg Imject Alum (Pierce, Rockford, Ill.) and dissolved in PBS. Aerosol sensitization with 0.2% ovalbumin (Ova) for 10 minutes using Ultra-Neb 90 nebulizer (DeVilbiss, Somerset, Pa.). Twenty-four hours after antigen challenge, the mice were challenged with increasing does of methacholine and Penh values were recorded by barometric plethysmography.

[3] = tested on: ovalbumin sensitized and challenged mice; assay: Ova-specific airway resistance of early and late allergic response to antigen challenge; conditions: gavage 120 μg/kg twice a day for 10 days
Description: Four to five-week old female Balb/c mice (Harlan Laboratories, Indianapolis, Ind.) were housed according to the NIH guidelines and were allowed constant access to food and water. Intraperitoneal injections of 6 μg of grade V chicken egg ovalbumin (Ova; Sigma-Aldrich, St. Louis, Mo.) adsorbed to 2.25 mg Imject Alum (Pierce, Rockford, Ill.) and dissolved in PBS. Aerosol sensitization with 0.2% ovalbumin (Ova) for 10 minutes using Ultra-Neb 90 nebulizer (DeVilbiss, Somerset, Pa.). Ondansetron was administered by gavage in the dose of 120 μg/kg twice a day for 10 days.

[4] = tested on: ovalbumin sensitized and challenged mice; assay: Eosinophils in BAL fluid following methacholine challenge; conditions: immediately following methacholine challenge; FIGS. 7 and 8

In the case of `Cc1nccn1CC1CCc2c(c3ccccc3n2C)C1=O` (centres unmarked) [Ondansetron], the “mean serum IgE concentrations” value [1] is reported as “unaffected”, the AHR to methacholine [2] is reported as “completely suppressed” and the “Ova-specific airway resistance of the early allergic response (EAR)” value ([3]; FIG. 1) is reported as “without EAR protection”. The “Ova-specific airway resistance of the late allergic response (LAR)” value ([3]; P <0.001, FIG. 2) was “significant protection during the LAR” and the “numbers of eosinophil in BAL” value [4] was “significantly descried numbers of eosinophil”.
